Our source for the Ki values is patent US9969687B2, “Compounds useful as CCR9 modulators” (Norgine B.V., priority 2013, dated 2018).

Test [1] deals with T1, CCR9 (Homo sapiens (Human), UniProt P51686). Put plainly: FLIPR calcium flux assay using hCCR9 over expressed cells (Chem1-hCCR9), TECK stimulation. The class given is cell-based. As to conditions: Chem1-hCCR9 overexpressing cells. The method, then:
Biological Activity: FLIPR Assay Using hCCR9 Over Expressed Cells
A calcium flux assay was used to determine the ability of the compounds to interfere with the binding between CCR9 and its chemokine ligand (TECK) in Chem1-hCCR9 overexpressing cells. hCCR9 overexpressing cells were seeded (25,000 cells/well) into black Poly-D-Lysine coated clear bottom 96-well plates (BD Biosciences, Cat #356640) and incubated overnight at 37° C./5% CO2 in a humidified incubator. Media was aspirated and cells washed twice with 100 μL assay buffer (1×HBSS, 20 mM HEPES) containing 2.5 mM Probenecid. A 0.3× Fluo-4 NW calcium dye was prepared in assay buffer containing 5 mM Probenecid and stored in the dark. Each well was loaded with 100 μL of 0.3× Fluo-4 NW calcium dye and incubated at 37° C./5% CO2 for 60 minutes and then at room temperature for 30 minutes. A half-log serially diluted concentration response curve was prepared at a 3× final assay concentration for each compound (10 μM-0.1 nM final assay concentration) and 50 μL of the compound then transferred to the cells (150 μL final volume) for 60 minutes prior to stimulation (30 minutes at 37° C./5% CO2 and 30 minutes at room temperature). TECK was diluted to 4× its EC80 in assay buffer (containing 0.1% [w/v] bovine serum albumin [BSA]) and 50 μL dispensed through the fluorometric imaging plate reader (FLIPR) instrument to stimulate the cells (200 μL final volume). The increase in intracellular calcium levels was measured with the FLIPR instrument. The potency of the compound as a CCR9 antagonist was calculated as an IC50 using GraphPad Prism software (variable slope four parameter). The Ki of the compound was determined from the IC50 values using the following equation. IC50/1+(Agonist (TECK) conc. used in assay/EC50 of agonist (TECK) generated on day of experiment) Ki calculation: […]

Test [2] deals with T1, CCR9. Put plainly: FLIPR calcium flux assay using MOLT4 cells, TECK stimulation. The test is classed as cell-based. As to conditions: MOLT4 cells (human T-cell line). The method, then: Biological Activity: FLIPR Assay Using MOLT4 Cells
A calcium flux assay was used to determine the ability of the compounds to interfere with the binding between CCR9 and its chemokine ligand (TECK) in MOLT4 cells (a human T-cell line). MOLT4 cells were seeded (100,000 cells/well) in corning cell culture plates (Cat #3603) in assay buffer (1×HBSS, 20 mM HEPES) containing 2.5 mM Probenecid. The plate was centrifuged at 1200 rpm for 3 minutes and incubated at 37° C./5% CO2 for 2 hours. A 0.3× Fluo-4 NW calcium dye was prepared in assay buffer containing 5 mM Probenecid and stored in the dark. Each well was loaded with 25 μl of 0.3× Fluo-4 NW calcium dye and incubated at 37° C./5% CO2 for 60 minutes and then at room temperature for 30 minutes. A half-log serially diluted concentration response curve was prepared at a 4× concentration for each (10 μM-0.1 nM final assay concentration) and 25 μL of the compound then transferred to the cells (100 μL final volume) for 60 minutes prior to stimulation (30 minutes at 37° C./5% CO2 and 30 minutes at room temperature). […] The increased in intracellular calcium levels was measured with the FLIPR instrument. The potency of the compound as CCR9 antagonist was calculated as an IC50 using GraphPad Prism software (variable slope four parameter). The Ki of the compound was determined from the IC50 values using the following equation. IC50/1+(Agonist (TECK) conc. used in assay/EC50 of agonist (TECK) generated on day of experiment) Ki calculation: […]

T1 sequence (P51686 whole entry): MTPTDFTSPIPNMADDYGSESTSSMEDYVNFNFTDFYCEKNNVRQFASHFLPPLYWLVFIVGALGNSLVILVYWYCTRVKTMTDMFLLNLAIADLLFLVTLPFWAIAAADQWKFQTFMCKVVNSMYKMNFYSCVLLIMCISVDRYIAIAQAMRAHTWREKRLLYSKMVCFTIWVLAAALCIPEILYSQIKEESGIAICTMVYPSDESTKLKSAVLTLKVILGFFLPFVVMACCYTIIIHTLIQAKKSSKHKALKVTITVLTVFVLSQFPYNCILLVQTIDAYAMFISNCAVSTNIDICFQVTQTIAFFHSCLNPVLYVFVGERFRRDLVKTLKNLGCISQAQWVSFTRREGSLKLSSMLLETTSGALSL

As for `CC(C)(C)c1ccc(S(=O)(=O)Nc2ccc(Cl)c3c2C(=O)N(Cc2c(F)ccc[n+]2[O-])C3=O)cc1` [Compound 241], the values for the Ki in test [1] and in test [2] were 7 nM and 5 nM, respectively.
Taken in the same sequence, the figures for `CC(C)(C)c1ccc(S(=O)(=O)Nc2ccc(Cl)c3c2C(=O)N(Cc2ncccn2)C3=O)cc1` [Compound 204] were 30 nM and 7 nM.
For `CC(C)(C)c1ccc(S(=O)(=O)Nc2ccc(Cl)c3c2C(=O)N(c2cccnn2)C3=O)cc1` [Compound 203], the values for the Ki in test [1] and in test [2] were 59 nM and 38 nM, respectively.
For `CC(C)(C)c1ccc(S(=O)(=O)Nc2ccc(Cl)c3c2C(=O)N(c2cc(F)ccn2)C3=O)cc1` [Compound 276], in that order: 91 nM and 22 nM.
Taken in the same sequence, the figures for `CC(C)(C)c1ccc(S(=O)(=O)Nc2ccc(Cl)c3c2C(=O)N(Cc2ccc[n+]([O-])c2)C3=O)cc1` [Compound 65, 3-((4-(4-(tert-butyl)phenylsulfonamido)-7-chloro-1,3-dioxoisoindolin-2-yl)methyl)pyridine 1-oxide] were 74 nM and 13 nM.
Turning to `COC(=O)c1sccc1N1C(=O)c2c(Cl)ccc(NS(=O)(=O)c3ccc(C(C)(C)C)cc3)c2C1=O` [Compound 155, methyl 3-(4-((4-(tert-butyl)phenyl)sulfonamido)-7-chloro-1,3-dioxoisoindolin-2-yl)thiophene-2-carboxylate], the results for the inhibition constant (Ki) in test [1] and in test [2] were 135 nM and 44 nM, respectively.
For `CC(C)(C)c1ccc(S(=O)(=O)Nc2ccc(Cl)c3c2C(=O)N(Cc2ccccn2)C3=O)cc1` [Compound 191], in that order: 33 nM and 20 nM.
Taken in the same sequence, the figures for `COc1cc(C#N)cc(N2C(=O)c3c(Cl)ccc(NS(=O)(=O)c4ccc(C(C)(C)C)cc4)c3C2=O)c1` [Compound 190] were 81 nM and 24 nM.
Take `Cc1cc(CN2C(=O)c3c(Cl)ccc(NS(=O)(=O)c4ccc(C(C)(C)C)cc4)c3C2=O)c[n+]([O-])c1` [Compound 262]: the inhibition constant (Ki) in test [1] was determined as 119 nM; in test [2], 46 nM.
For `O=C1c2c(Cl)ccc(NS(=O)(=O)c3ccc(OC(F)(F)F)cc3)c2C(=O)N1c1cccnc1` [Compound 45], in that order: 314 nM and 52 nM.
For `COc1cncc(N2C(=O)c3c(Cl)ccc(NS(=O)(=O)c4ccc(C(C)(C)C)cc4)c3C2=O)c1C` [Compound 242], in that order: 56 nM and 18 nM.
For `CC(C)(C)c1ccc(S(=O)(=O)Nc2ccc(Cl)c3c2C(=O)N(Cc2cc[n+]([O-])cc2)C3=O)cc1` [Compound 209], in that order: 77 nM and 30 nM.
Consider `Cc1cncc(N2C(=O)c3c(Cl)ccc(NS(=O)(=O)c4ccc(C(C)(C)C)cc4)c3C2=O)c1` [Compound 104, 4-(tert-butyl)-N-(7-chloro-2-(5-methylpyridin-3-yl)-1,3-dioxoisoindolin-4-yl)benzenesulfonamide], for which the figures for the Ki in test [1] and in test [2] were 239 nM and 30 nM, respectively.
For `CC(Cc1cccnc1)N1C(=O)c2c(Cl)ccc(NS(=O)(=O)c3ccc(C(C)(C)C)cc3)c2C1=O` (stereo not shown) [Compound 196], in that order: 103 nM and 46 nM.
For `CC(C)(C)c1ccc(S(=O)(=O)Nc2ccc(Cl)c3c2C(=O)N(c2ccc[nH]c2=O)C3=O)cc1` [Compound 281, 4-(tert-butyl)-N-(7-chloro-1,3-dioxo-2-(2-oxo-1,2-dihydropyridin-3-yl)isoindolin-4-yl)benzenesulfonamide], in that order: 4 nM and 5 nM.
Regarding `CC(C)(C)c1ccc(S(=O)(=O)Nc2ccc(C#N)c3c2C(=O)N(Cc2ccccn2)C3=O)cc1` [Compound 279], the Ki was 17 nM in test [1] and 18 nM in test [2].
For `Cn1ccc(CN2C(=O)c3c(Cl)ccc(NS(=O)(=O)c4ccc(C(C)(C)C)cc4)c3C2=O)n1` [Compound 193], in that order: 21 nM and 16 nM.
Taken in the same sequence, the figures for `COc1cc(CN2C(=O)c3c(Cl)ccc(NS(=O)(=O)c4ccc(C(C)(C)C)cc4)c3C2=O)c[n+]([O-])c1` [Compound 231] were 89 nM and 50 nM.
As for `CC(C)(C)c1ccc(S(=O)(=O)Nc2cccc3c2C(=O)N(c2cccnc2)C3=O)cc1` [Compound 1, 4-tert-Butylphenylsulfonic acid (1,3-dioxo-2-(pyridin-3-yl)-2,3-dihydro-1H-isoindol-4-yl)-amide], the inhibition constant (Ki) turned out to be 1240 nM in test [1] and 479 nM in test [2].
Consider `CC(C)(C)c1ccc(S(=O)(=O)Nc2ccc(Cl)c3c2C(=O)N(c2ccncc2)C3=O)cc1` [Compound 264], for which the Ki in test [1] is 18 nM; in test [2], 11 nM.
As to `Cc1cncc(N2C(=O)c3c(Cl)ccc(NS(=O)(=O)c4ccc(C(C)(C)C)cc4)c3C2=O)n1` [Compound 220], the inhibitory constant (Ki) in test [1] is 42 nM; in test [2], 12 nM.
In the case of `CCOc1cncc(N2C(=O)c3c(Cl)ccc(NS(=O)(=O)c4ccc(C(C)(C)C)cc4)c3C2=O)c1` [Compound 103], the inhibition constant Ki in test [1] came to 242 nM; in test [2], 128 nM.
Taken in the same sequence, the figures for `COc1cc[n+]([O-])cc1N1C(=O)c2c(Cl)ccc(NS(=O)(=O)c3ccc(C(C)(C)C)cc3)c2C1=O` [Compound 189] were 34 nM and 8 nM.
For `COc1ccc(N2C(=O)c3c(Cl)ccc(NS(=O)(=O)c4ccc(C(C)(C)C)cc4)c3C2=O)c(C)n1` [Compound 238], in that order: 13 nM and 14 nM.
In the case of `Cc1cc(N2C(=O)c3c(Cl)ccc(NS(=O)(=O)c4ccc(C(C)(C)C)cc4)c3C2=O)c(C)[n+]([O-])c1` [Compound 267], the Ki in test [1] was found to be 59 nM; in test [2], 27 nM.
For `Cc1cnc(N2C(=O)c3c(Cl)ccc(NS(=O)(=O)c4ccc(C(C)(C)C)cc4)c3C2=O)cn1` [Compound 275], in that order: 54 nM and 32 nM.
Taken in the same sequence, the figures for `CC(C)(C)c1ccc(S(=O)(=O)Nc2ccc(Cl)c3c2C(=O)N(c2cc(C#N)ccn2)C3=O)cc1` [Compound 200] were 92 nM and 45 nM.
Taken in the same sequence, the figures for `N#Cc1cccc(CN2C(=O)c3c(Cl)ccc(NS(=O)(=O)c4ccc(C(F)(F)F)cc4)c3C2=O)c1` [Compound 128] were 447 nM and 244 nM.
With `CC(C)(C)c1ccc(S(=O)(=O)Nc2ccc(Cl)c3c2C(=O)N(c2cn[nH]c2)C3=O)cc1` [Compound 148, 4-(tert-butyl)-N-(7-chloro-1,3-dioxo-2-(1H-pyrazol-4-yl)isoindolin-4-yl)benzenesulfonamide], the inhibitory constant (Ki) in test [1] is 94 nM; in test [2] it was 36 nM.
As for `Cc1ccc(N2C(=O)c3c(Cl)ccc(NS(=O)(=O)c4ccc(C(C)(C)C)cc4)c3C2=O)nc1` [Compound 226], the figures for the inhibitory constant (Ki) in test [1] and in test [2] were 23 nM and 21 nM, respectively.
For `Cc1cncc(CN2C(=O)c3c(Cl)ccc(NS(=O)(=O)c4ccc(C(C)(C)C)cc4)c3C2=O)c1` [Compound 258], the inhibition constant Ki in test [1] came out at 67 nM; in test [2] it was 23 nM.
Regarding `CC(C)(C)c1ccc(S(=O)(=O)Nc2ccc(Cl)c3c2C(=O)N(c2ccsc2C#N)C3=O)cc1` [Compound 232], the figures for the Ki in test [1] and in test [2] were 3 nM and 7 nM, respectively.
As to `CCOc1cc(N2C(=O)c3c(Cl)ccc(NS(=O)(=O)c4ccc(C(C)(C)C)cc4)c3C2=O)c[n+]([O-])c1` [Compound 197], the Ki in test [1] is 40 nM; in test [2] it was 21 nM.
For `CC(C)(C)c1ccc(S(=O)(=O)Nc2ccc(Cl)c3c2C(=O)N(c2cccc[n+]2[O-])C3=O)cc1` [Compound 274], in that order: 50 nM and 34 nM.
As to `Cc1cccc(N2C(=O)c3c(Cl)ccc(NS(=O)(=O)c4ccc(C(C)(C)C)cc4)c3C2=O)n1` [Compound 228], the Ki in test [1] was 6 nM; in test [2], 5 nM.
